We go through three compounds from patent US5814630A, “Quinazoline compounds” (Zeneca Limited, priority 1996, dated 1998).

One may read the IC50 as the concentration needed to halve the response being measured.

The subject of assay [1] is EGF receptor tyrosine kinase. The conditions noted are these: Fry et al., Science, 1994, 265, 1093; cited from earlier work.
The subject of assay [2] is human naso-pharyngeal cancer cell line KB. Kind of assay: in vitro inhibition of EGF-stimulated growth of human naso-pharyngeal cancer cell line KB (Test (b)). The format is cell-based. The conditions noted are these: 72 h, EGF 10 ng/ml, 3 days, MTT, read-out: IC50 in Test (b), inhibition of EGF-stimulated growth of KB cells. How it is done: (b) An in vitro assay which determines the ability of a test compound to inhibit the EGF-stimulated growth of the human naso-pharyngeal cancer cell line KB.
KB cells were seeded into wells at a density of 1×10^4 -1.5×10^4 cells per well and grown for 24 hours in DMEM supplemented with 5% FCS (charcoal-stripped). Cell growth was determined after incubation for 3 days by the extent of metabolism of MTT tetrazolium dye to furnish a bluish colour. Cell growth was then determined in the presence of EGF (10 ng/ml) or in the presence of EGF (10 ng/ml) and a test compound at a range of concentrations. An IC50 value could then be calculated.

Assay [3] deals with T1, EGF receptor tyrosine kinase (Homo sapiens, UniProt P00533).
T1 construct: Receptor tyrosine kinase was obtained in partially purified form from A-431 cells; endogenous in cells; host or cells: A-431 cells (human vulval carcinoma), Triton X-100 solubilised membrane fraction
Description: in vitro inhibition of the enzyme EGF receptor tyrosine kinase (Test (a)). The assay is classed as biochemical. The conditions noted are these: receptor tyrosine kinase from A-431 cells. As to the method: (a) An in vitro assay which determines the ability of a test compound to inhibit the enzyme EGF receptor tyrosine kinase. Receptor tyrosine kinase was obtained in partially purified form from A-431 cells (derived from human vulval carcinoma) by the procedures described below which are related to those described by Carpenter et al., J. Biol. Chem., 1979, 254, 4884, Cohen et al., J. Biol. Chem., 1982, 257, 1523 and by Braun et al., J. Biol. Chem., 1984, 259, 2051.
A-431 cells were grown to confluence using Dulbecco's modified Eagle's medium DMEM) containing 5% fetal calf serum (FCS). The obtained cells were homogenised in a hypotonic borate/EDTA buffer at pH 10.1. The homogenate was centrifuged at 400 g for 10 minutes at 0°-4° C. The supernatant was centrifuged at 25,000 g for 30 minutes at 0°-4° C. […]
The test compound/EGF mixture solution (5 μl) was added to the test enzyme solution (10 μl) and the mixture was incubated at 0°-4° C. for 30 minutes. […] Radioactivity present in the filter paper was measured using a liquid scintillation counter (Sequence A). […]
Receptor tyrosine kinase inhibition was calculated as follows: [formula]
The extent of inhibition was then determined at a range of concentrations of test compound to give an IC50 value.

Assay [4] deals with another carcinoma which does not express EGF receptor tyrosine kinase. The note with it: cited from earlier work.
For assay [5], the system named is human mammary carcinoma which expresses EGF receptor tyrosine kinase. The conditions noted are these: athymic nude mice; cited from earlier work.

T1 sequence (P00533 25-1210): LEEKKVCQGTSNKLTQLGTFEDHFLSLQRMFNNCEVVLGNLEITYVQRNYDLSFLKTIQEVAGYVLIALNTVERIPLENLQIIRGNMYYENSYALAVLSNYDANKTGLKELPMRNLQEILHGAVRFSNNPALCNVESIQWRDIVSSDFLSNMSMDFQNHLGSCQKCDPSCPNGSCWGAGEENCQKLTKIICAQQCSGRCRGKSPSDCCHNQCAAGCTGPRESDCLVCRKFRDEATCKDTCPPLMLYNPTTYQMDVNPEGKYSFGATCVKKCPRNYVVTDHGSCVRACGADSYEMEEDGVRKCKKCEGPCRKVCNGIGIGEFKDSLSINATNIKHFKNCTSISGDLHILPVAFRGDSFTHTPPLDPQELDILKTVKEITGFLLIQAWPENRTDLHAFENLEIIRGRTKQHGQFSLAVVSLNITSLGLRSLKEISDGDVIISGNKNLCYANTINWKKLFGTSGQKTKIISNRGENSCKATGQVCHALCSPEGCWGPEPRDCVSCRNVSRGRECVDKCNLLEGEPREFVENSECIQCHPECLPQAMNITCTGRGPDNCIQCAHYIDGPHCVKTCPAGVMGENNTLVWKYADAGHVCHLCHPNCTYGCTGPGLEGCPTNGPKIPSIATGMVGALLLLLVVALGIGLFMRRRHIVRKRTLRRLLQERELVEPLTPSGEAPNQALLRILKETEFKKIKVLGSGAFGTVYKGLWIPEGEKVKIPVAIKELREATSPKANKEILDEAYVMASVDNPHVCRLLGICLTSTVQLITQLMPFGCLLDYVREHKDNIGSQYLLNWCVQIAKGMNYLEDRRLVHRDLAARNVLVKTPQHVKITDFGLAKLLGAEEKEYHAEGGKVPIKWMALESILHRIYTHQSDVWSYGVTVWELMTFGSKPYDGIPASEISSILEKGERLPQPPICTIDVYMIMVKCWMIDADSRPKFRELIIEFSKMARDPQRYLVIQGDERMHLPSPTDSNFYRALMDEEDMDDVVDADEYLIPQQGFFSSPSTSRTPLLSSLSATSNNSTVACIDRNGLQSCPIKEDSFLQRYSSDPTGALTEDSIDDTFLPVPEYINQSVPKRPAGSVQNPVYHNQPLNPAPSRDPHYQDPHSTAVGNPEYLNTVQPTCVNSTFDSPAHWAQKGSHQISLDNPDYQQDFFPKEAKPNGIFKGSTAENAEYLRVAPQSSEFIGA
T1 sequence (P01133 971-1023 partner limits assumed): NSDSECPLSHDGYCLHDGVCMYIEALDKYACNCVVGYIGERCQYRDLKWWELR

Take `COc1cc2ncnc(Nc3cccc(Br)c3)c2cc1OC` [4-(3-bromoanilino)-6,7-dimethoxyquinazoline]: the “inhibition of EGF receptor tyrosine kinase (in words)” value in assay [1] was “highly potent inhibitor”. In the case of `Fc1ccc(Nc2ncnc3cc(-c4csc(CN5CCOCC5)c4)ccc23)cc1Cl` [Example 5, 4-(3-chloro-4-fluoroanilino)-7-(5-morpholinomethylthien-3-yl)quinazoline], the IC50 in assay [2] was 0.12 µM; in assay [3], 0.042 µM. As for `O=CN/C=C/c1cc(O)ccc1O` [erbstatin], in assay [4], the “effect on the growth of another carcinoma” value is “without effect”. Besides, in assay [5], the “attenuation of growth of a transplanted human mammary carcinoma” value is recorded as “specifically attenuates the growth”.
